Assay results reported in ChEMBL document CHEMBL1148365, “Rational design of new antituberculosis agents: receptor-independent four-dimensional quantitative structure-activity relationship analysis of a set of isoniazid derivatives” (2004).

System: Mycobacterium tuberculosis
Assay: Minimum inhibitory concentration against Mycobacterium tuberculosis var. bovis strain at 310K, with value expressed as pMIC i.e. -log of MIC (ug/mL).
Type: functional

SMILES	pMIC
NNC(=O)c1ccncn1	1.7
Cn1cncc1C(=O)NN	0.52
NNC(=O)C1Cc2ccccc2O1 (stereo unspecified)	0.65
CN1CCC(C(=O)NN)CC1	0.22
NNC(=O)c1cnccn1 [PYRAZINE CARBOXYLIC ACID HYDRAZIDE]	2.82
NNC(=O)c1ccccn1	3.82
NNC(=O)c1ccccc1[N+](=O)[O-]	0.52
NNC(=O)Cc1ccccc1	1.92
NNC(=O)Cc1ccc(Cl)cc1	2
CN(C)C(=O)N1CCC(C(=O)NN)CC1	0.22
NNC(=O)c1ccnc(Br)c1	1.82
NNC(=O)c1ccncc1N	2.82
NNC(=O)c1ccncc1 [ISONIAZID]	4.2
NNC(=O)c1ccc(Br)cc1	1.92
NNC(=O)c1ccc(Cl)cc1	2.52
NNC(=O)c1cccc([N+](=O)[O-])c1	3.22
NNC(=O)/C=C/c1ccccc1	3.4
NNC(=O)c1ccccc1 [BENZOIC ACID HYDRAZIDE]	3.22

SMILES	pMIC
NNC(=O)Cc1ccncc1	1
NNC(=O)c1ccc(O)cc1	1.92
NNC(=O)c1cccnc1 [NICOTINIC ACID HYDRAZIDE]	2.7
NNC(=O)C(O)c1ccccc1 (stereo unspecified)	1.4
NNC(=O)c1c[nH]cn1	2.7
NNC(=O)c1cscn1	1.82
COc1cc(C(=O)NN)ccc1O	1.52
NNC(=O)c1c[nH]c(S)n1	0.6
NNC(=O)c1ccnc(F)c1	3.4
NNC(=O)c1ccc([N+](=O)[O-])cc1	1.92
Cc1ncc(C(=O)NN)c(O)n1	0.4
NNC(=O)c1ccco1	4.22
NNC(=O)c1ccnc2ccccc12	1.1
NNC(=O)c1ccccc1N	1.52
NNC(=O)C1CCNCC1	0.22
Cc1cnccc1C(=O)NN	0.7
NNC(=O)c1cncs1	2
NNC(=O)c1cccc(N)c1	2.52
